Assay results as given in patent publication US6569805B1, “Herbicidal compositions” (Aventis CropScience GmbH, priority 1999, dated 2003).
Where “and” joins values, the source holds several entries; their conditions need not be identical. Equal values may be shown once.

Assays:
Assay type in all cases: in vivo
[1] = test system: Cyperus esculentus; assay: Greenhouse test under paddy rice conditions, visual scoring about 3 weeks after application (Example 4); settings: herbicide 0.004 kg/ha without vegetable oil
Method: (§1) Rice, and Cyperus esculentus as typical harmful plant, were grown in a greenhouse under paddy rice conditions (flooding level of the water 2-3 cm) in sealed plastic pots and sprayed with an active substance preparation at an application rate of (converted) 600 l/ha. The test plants were then placed in the greenhouse under optimal growth conditions and kept like this over the entire test period. Approximately 3 weeks after the application, they were evaluated by means of visually scoring the damage to the plants in comparison with the untreated control, using the following scheme: 100%=total destruction, 0%=no action. The test results are shown in the table hereinbelow, the action of the herbicide/safener combination and of the vegetable oil when used separately being stated in brackets: […]

[2] = test system: Rice; assay: as above; settings: crop plant, herbicide 0.004 kg/ha without vegetable oil
Method: as §1

[3] = test system: Chenopodium album; assay: Greenhouse pot test, post-emergence spray, damage evaluated visually 2-3 weeks after treatment (Example 3); settings: herbicide 0.015 kg/ha without vegetable oil
Method: (§2) Seeds or rhizome pieces of monocotyledonous and dicotyledonous harmful plants and useful plants were placed in sandy loam in pots of diameter 9 to 13 cm and covered with soil. The pots were kept in a greenhouse under optimal conditions. In the two- to three-leaf stage, i.e. approximately three weeks after cultivation has begun, the test plants were treated with the herbicides and vegetable oil in the form of aqueous dispersions or suspensions or emulsions and the green parts of the plant were sprayed with various dosage rates at an application rate of (converted) 300 l of water/ha. To grow the plants further, the pots were kept in the greenhouse under optimal conditions. The damage to the useful plants and harmful plants was evaluated visually 2-3 weeks after the treatment using the following scheme: 100%=total destruction, 0%=no action. The test results are shown in the table hereinbelow, the action of the herbicide/safener combination and of the vegetable oil when used separately being stated in brackets: […]

[4] = test system: Echinochloa crus galli; assay: as above; settings: herbicide 0.015 kg/ha without vegetable oil
Method: as §2

[5] = test system: Sorghum halepense; assay: as above; settings: herbicide 0.015 kg/ha without vegetable oil
Method: as §2

SMILES | CYPES Action (%), herbicide used separately (first value in brackets) [1] | Rice Action (%), herbicide used separately (first value in brackets) [2] | CHEAL Action (%), herbicide used separately (first value in brackets) [3] | ECHCG Action (%), herbicide used separately (first value in brackets) [4] | SORHA Action (%), herbicide used separately (first value in brackets) [5]
CCOc1ccccc1OS(=O)(=O)NC(=O)Nc1nc(OC)cc(OC)n1 [A13, 1-(4,6-dimethoxypyrimidin-2-yl)-3-(2-ethoxyphenoxysulfonyl)urea] | 35% | 0 (0 + 0) % | – | – | –
COc1cc(OC)nc(NC(=O)NS(=O)(=O)c2ncccc2C(=O)N(C)C)n1 [V1, Nicosulfuron] | – | – | (0 + 0) % | 0 (0 + 0) % and 0% | (0 + 0) %
